Measured values: patent publication US6906239B2, “Plant preparations” (priority 2002, dated 2005)

How the values were obtained:
Soil microorganisms [1] = assay: In situ soil degradation of bagasse from treated sugar cane (Example 9); details: 10 grams drench at 4 and 2 weeks before harvest, buried in soil six months, scale 9 to 0
Text: (§1) Fertile sandy loam topsoil in a cultivated field that had been used for the sequential cultivation of corn for the prior two years constituted the in situ environment. The field was located in the town Ingleside on the Eastern Shore of Maryland. The tissue burial and recovery work was completed in multiple marked plots.
(§2) Staining intensity ratings were subjectively established on ten-point rating scales and used as qualitative rankings within each individual example. Unless otherwise indicated, staining for lignin present in bagasse was performed by both the phlorgluciol and hypochlorite/sulfite techniques and was rated subjectively on a ten-step scale, from most intense staining (9) to no staining (0). Staining for chitin present in the bagasse was also subjectively rated on a ten-step scale from most intense staining (9) to no staining (0). All staining techniques were performed in triplicate, unless otherwise indicated.
Sugar cane plants were treated four weeks and two weeks before harvest with drench applications of 10 grams of one of the chemicals listed in Table 6, i.e., cinnamic acid, 2,6-difluorocinnamic acid, 3-chlorocinnamic acid or 2-chloro-4-hydroxybenzaldehyde. Approximately, 10 g of extracted bagasse samples were mixed equally with sand, and the mixture placed into a nylon sack and buried approximately 6 inches below the ground. The samples were buried in such a fashion for six months from the March through August time period. All staining was done in quintuplicate.

Soil microorganisms [2] = assay: In situ soil degradation of corn stalk from treated corn plants (Example 10); details: two sprays of 20 mM, buried in soil six months, scale 9 to 0
Text: Plants were cultivated in a greenhouse environment and modified precursors and control precursors were applied via a foliar spray. Treated plants were permitted to naturally mature, senesce and dry down. After dry down several centimeter long sections were taken from nodal and from internodal regions at the base of the stalk for further in situ soil treatment. After treatment, thin sections were made, stained and visually inspected. Observations were made with a dissecting or a light microscope.
as §1, §2
Treatment of corn plants included two sprays, both one month after seedling emergence and once at tasseling with a spray application of 20 mM of one of the chemicals listed in Table 7, i.e., cinnamic acid, 2,6-difluorocinnamic acid, 3-chlorocinnamic acid or 2-chloro-4-hydroxybenzaldehyde with a silicone spreader/sticker until runoff. Dried stalk samples were buried in soil, as described above, for six months from the March through August time period. All staining was done in quintuplicate.

white-rot fungus [3] = assay: White-rot fungus cultured on bagasse from treated sugar cane, lignin and chitin staining (Examples 5, 6, 8); type: cell-based, Phanerochaete chrysosporium; details: for Staining intensity Chitin / Staining intensity Lignin: fungus cultured three months, scale 9 to 0
Text: (§3) Phanerochaete chrysosporium, a lignin degrading fungus, was maintained on potato dextrose agar (PDA). Lignin degradation studies employed culturing the fungus in a liquid mineral salt medium that contained treated plant materials, such as bagasse from a plant that had been treated with a modified precursor preparation. The bagasse in the medium comprised the sole source of organic carbon for support of fungal growth. One inoculum “loop,” a standard tool used in the preparation and culturing of microbes, was used to inoculate the medium.
as §2
Technique 1: Place sections in a drop of saturated, aqueous phloroglucinol in 20% HCl. Lignin appears as deep red (9) to light purple (1).
Technique 2: Place sections in commercial hypochlorite bleach for five minutes and transfer to a 1% solution of sodium sulfite. Lignin appears as a bright red cherry color (9) that fades to brown (1) in approximately 1 hour.
Technique: Sections are autoclaved in saturated KOH for 10 minutes to convert chitin to chitosan. Washed sections are placed in a few drops of iodine-potassium iodide solution (2 gm KI in 100 ml water and add 0.2 gm I2) in 1% sulfuric acid. Abundant amounts of chitosans appear dark violet (9) and a lower concentration as a light blue stain (1). Care should be exercised since cellulose may also stain under these conditions. For this reason, if necessary, cellulose can be removed by flooding with Schweitzer's reagent (saturated copper hydroxide in ammonium hydroxide) prior to iodine-potassium iodide treatment.
In similar fashion to Example 4, sugar cane plants were treated at four weeks and also at two weeks before harvest, with five grams of the modified precursors described above, by drenching the sugar cane roots. Bagasse samples were then obtained and approximately 10 g used in the following experiment.
In this experiment, white-rot fungus was cultured on the bagasse samples for three months. Specifically, P. chrysosporium was maintained on PDA and then added to a liquid mineral salt medium that contained the treated plant materials, such as treated bagasse. One inoculum “loop,” a standard tool used in the preparation and culturing of microbes, was used to inoculate the bagasse-containing medium. The medium with the bagasse comprised the only sole source of organic carbon for support of fungal growth. After culturing the fungus on the bagasse stored in the liquid medium, the bagasse was collected from the medium and then stained for lignin and chitin.
Sugar cane plants were treated with either 0.5 g, 5 g or 50 g of 2,6-difluorocinnamic acid or 3-cholorcinnamic acid four weeks prior to harvest and also at two weeks prior to harvest. Thus, the total dosage of each modified precursor is either 1 g, 10 g, or 100 g. White-rot fungus was then cultured on the extracted bagasse samples for three months and lignin and chitin staining performed.
Glyphosine (Sigma Aldrich) is commercially available as a sugarcane ripener for use several weeks before harvest. In this example, glyphosine, at one-fourth the label rate (i.e., approximately 4 oz per acre), was added to 3-chlorocinnamic acid during drench treatments of 5 gm, both four weeks and two weeks prior to harvest. The label rate of glyphosine was 16 oz. White-rot fungus was cultured on the bagasse samples for three months according to the methodology described in Example 2.

white-rot fungus [4] = assay: White-rot fungus cultured on corn stalk fibrous extract from treated corn (Example 11); type: cell-based, Phanerochaete chrysosporium; details: for Staining intensity Chitin / Staining intensity Lignin: corn stalk, fungus cultured three months, scale 9 to 0
Text: as §3, §2
Glyphosate (Sigma Aldrich) is commercially available as a no-till herbicide for use with corn. In this example glyphosate at the one-fourth the label rate (i.e., approximately 3 oz per acre) was added to 3-chlorocinnamic acid. The label rate of glyphosate was 12 oz per acre. The glyphosate was applied through a spray treatment that included two sprays, both one month after seedling emergence and once at tasseling. The spray application was applied with a silicone spreader/sticker until runoff. White-rot fungus was cultured on potato dextrose agar and then use to inoculate a medium containing the corn stalk fibrous extract as described in Example 2 above. These samples were cultured under appropriate conditions for three months.

White rot fungus = White rot fungus cultured on plant samples treated with fungicidal candidates, lignin and chitin staining (Example 12 ii); type: cell-based, Phanerochaete chrysosporium; details: 100 ppm four weeks before harvest, fungus cultured three months, scale 9 to 0
Experimental: as §2
Tulip tree, White Pine and corn plants were treated with fungicidal candidates four weeks before harvest. White rot fungus (Phanerochaete chrysosporium) was then cultured on the plant samples for three months. Staining and quantification of lignin and chitin present in plant materials was performed as described above.

[5] = sugar cane bagasse, 5 g drench at 4 and 2 weeks before harvest
[6] = total dosage 1 gm (0.5 g at 4 and 2 weeks before harvest)
[7] = total dosage 10 gm (5 g at 4 and 2 weeks before harvest)
[8] = total dosage 100 gm (50 g at 4 and 2 weeks before harvest)
[9] = Example 8, 10 gm with Glyphosine at one-fourth the label rate
[10] = Example 8, 10 gm without glyphosine
[11] = two sprays of 20 mM with Glyphosate at one-fourth the label rate
[12] = two sprays of 20 mM, without glyphosate

SMILES: O=C(O)C=Cc1c(F)cccc1F [2,6-Difluorocinnamic Acid]
- Staining intensity Chitin (Soil microorganisms [1]): 4
- Staining intensity Lignin (Soil microorganisms [1]): 5
- Staining intensity Chitin (Soil microorganisms [2]): 6
- Staining intensity Lignin (Soil microorganisms [2]): 5
- Staining intensity Chitin (white-rot fungus [3]; [5]): 3
- Staining intensity Lignin (white-rot fungus [3]; [5]): 5
- Staining intensity Chitin (white-rot fungus [3]; [6]): 5
- Staining intensity Lignin (white-rot fungus [3]; [6]): 4
- Staining intensity Chitin (white-rot fungus [3]; [7]): 3
- Staining intensity Lignin (white-rot fungus [3]; [7]): 6
- Staining intensity Chitin (white-rot fungus [3]; [8]): 2
- Staining intensity Lignin (white-rot fungus [3]; [8]): 7

SMILES: O=Cc1ccc(O)cc1Cl [2-Chloro-4-hydroxybenzaldehyde]
- Staining intensity Chitin (Soil microorganisms [1]): 3
- Staining intensity Lignin (Soil microorganisms [1]): 6
- Staining intensity Chitin (Soil microorganisms [2]): 3
- Staining intensity Lignin (Soil microorganisms [2]): 6
- Staining intensity Chitin (white-rot fungus [3]; [9]): 2
- Staining intensity Lignin (white-rot fungus [3]; [9]): 7
- Staining intensity Chitin (white-rot fungus [3]; [10]): 3
- Staining intensity Lignin (white-rot fungus [3]; [10]): 6
- Staining intensity Chitin (white-rot fungus [3]; [5]): 4
- Staining intensity Lignin (white-rot fungus [3]; [5]): 3

SMILES: O=Cc1cc(Br)c(O)c(Br)c1 [3,5-Dibromo-4-hydroxybenzaldehyde]
- Staining intensity Chitin (white-rot fungus [3]; [5]): 6
- Staining intensity Lignin (white-rot fungus [3]; [5]): 5

SMILES: O=C(O)C=Cc1cccc(Cl)c1 [3-Cholorcinnamic Acid, 3-Cholorcinnamic acid]
- Staining intensity Chitin (white-rot fungus [4]; [11]): 2
- Staining intensity Lignin (white-rot fungus [4]; [11]): 7
- Staining intensity Chitin (white-rot fungus [4]; [12]): 3
- Staining intensity Lignin (white-rot fungus [4]; [12]): 6
- Staining intensity Chitin (Soil microorganisms [1]): 3
- Staining intensity Lignin (Soil microorganisms [1]): 6
- Staining intensity Chitin (Soil microorganisms [2]): 4
- Staining intensity Lignin (Soil microorganisms [2]): 7
- Staining intensity Chitin (white-rot fungus [3]; [9]): 2
- Staining intensity Lignin (white-rot fungus [3]; [9]): 7
- Staining intensity Chitin (white-rot fungus [3]; [10]): 3
- Staining intensity Lignin (white-rot fungus [3]; [10]): 5
- Staining intensity Chitin (white-rot fungus [3]; [5]): 7
- Staining intensity Lignin (white-rot fungus [3]; [5]): 5
- Staining intensity Chitin (white-rot fungus [3]; [6]): 4
- Staining intensity Lignin (white-rot fungus [3]; [6]): 4
- Staining intensity Chitin (white-rot fungus [3]; [7]): 2
- Staining intensity Lignin (white-rot fungus [3]; [7]): 6
- Staining intensity Chitin (white-rot fungus [3]; [8]): 1
- Staining intensity Lignin (white-rot fungus [3]; [8]): 7

SMILES: COC(=O)Nc1nc2ccccc2[nH]1 [Carbendazim, methyl-2-benzimidazole carbamate]
- Intensity of Chitin Stain (White rot fungus; Corn plant): 2
- Intensity of Lignin Stain (White rot fungus; Corn plant): 8
- Intensity of Chitin Stain (White rot fungus; Tulip tree): 1
- Intensity of Lignin Stain (White rot fungus; Tulip tree): 8
- Intensity of Chitin Stain (White rot fungus; White Pine tree): 2
- Intensity of Lignin Stain (White rot fungus; White Pine tree): 7

SMILES: O=C(O)C=Cc1ccccc1 [Cinnamic Acid, reference compound]
- Staining intensity Chitin (Soil microorganisms [1]): 8
- Staining intensity Lignin (Soil microorganisms [1]): 1
- Staining intensity Chitin (Soil microorganisms [2]): 9
- Staining intensity Lignin (Soil microorganisms [2]): 0-1
- Staining intensity Chitin (white-rot fungus [3]; [5]): 9
- Staining intensity Lignin (white-rot fungus [3]; [5]): 1

SMILES: O=C(O)CN(CP(=O)(O)O)CP(=O)(O)O [Glyphosine, reference compound]
- Effect on recalcitrance of lignin to biodegradation by white-rot fungi conferred by halogen-substituted precursors (white-rot fungus [3]; glyphosine at one fourth the label rate added to the modified precursor, sugar cane): increases the effectiveness

SMILES: CCCC1COC(Cn2cncn2)(c2ccc(Cl)cc2Cl)O1 (centres unmarked) [Propiconazole, 1-[[2-(2,4-dichlorophenyl)-4-propyl-1,3-dioxolan-2-yl]methyl]-1H-1,2,4-triazole]
- Intensity of Chitin Stain (White rot fungus; Corn plant): 1
- Intensity of Lignin Stain (White rot fungus; Corn plant): 8
- Intensity of Chitin Stain (White rot fungus; Tulip tree): 2
- Intensity of Lignin Stain (White rot fungus; Tulip tree): 7
- Intensity of Chitin Stain (White rot fungus; White Pine tree): 1
- Intensity of Lignin Stain (White rot fungus; White Pine tree): 8

SMILES: c1ccc2[nH]c(-c3cscn3)nc2c1 [Thiabendazole, 2-(4-thiazolyl)benzimidazole]
- Intensity of Chitin Stain (White rot fungus; Corn plant): 1
- Intensity of Lignin Stain (White rot fungus; Corn plant): 9
- Intensity of Chitin Stain (White rot fungus; Tulip tree): 1
- Intensity of Lignin Stain (White rot fungus; Tulip tree): 9
- Intensity of Chitin Stain (White rot fungus; White Pine tree): 2
- Intensity of Lignin Stain (White rot fungus; White Pine tree): 8

SMILES: O=C(O)C(F)=Cc1ccccc1 [alpha-Fluorocinnamic Acid]
- Staining intensity Chitin (white-rot fungus [3]; [5]): 6

SMILES: O=C(O)CNCP(=O)(O)O [glyphosate, Glyphosate, reference compound]
- Effect on effectiveness of halogen-substituted precursor molecules in reducing lignin biodegradation by white-rot fungi (white-rot fungus [4]; glyphosate at one-fourth the label rate added to the spray, corn): increases the effectiveness
